Assay results reported in patent US20070248597A1, “Methods of decreasing vascular calcification using IL-1 inhibitors” (priority 2005, published 2007).

Tests used:
Type in all cases: in vivo, rat
5/6 nx uremic rats = assay: Aortic calcification (Von Kossa, pathologist score) in 5/6-nephrectomy model of CKD and secondary HPT; settings: for aortic calcification severity (Von Kossa calcification score): 5/6Nx male SD rats, uremia established 8 weeks, treatment week 4, Fc-IL-1ra 100 mg/kg/day s.c., calcitriol 30 ng
Text: We administered the IL-1 receptor antagonist Fc-IL-1ra, calcitriol, the combination of Fc-IL-1ra+calcitriol) or their corresponding vehicles to a rodent animal model of chronic kidney disease (CKD) and secondary hyperparathyroidism (SHPT) induced by subtotal nephrectomy (5/6Nx). The experimental paradigm is shown in FIG. 5, with the treatment groups set out in Table 2 below.
Aortas were removed at treatment week 4 (trt wk4), fixed and stained for mineralization (Von Kossa) and the severity determined and scored by a pathologist blinded to the treatments (Calcification Scores: 0=no calcification; 1=minimal; 2=mild; 3=moderate; 4=marked; 5=severe).

[1] = tested on: adenine-induced CKD/SHPT rats; assay: Blood chemistry (BUN, creatinine, PTH) in adenine model of CKD/SHPT
Description: (§1) Adenine, included as a dietary supplement (0.75%), was fed to adult, male Sprague-Dawley rats. Blood for chemistry analyses (total serum calcium, phosphorous, blood urea nitrogen [BUN], creatinine, PTH) was collected before and again on drug treatment days 0 (pretreatment) and 21 from the retro-orbital sinus of anesthetized rats. Blood (0.5 ml) was collected for PTH levels into SST (clot activator) brand blood tubes and allowed to clot. Serum was removed and stored at −70° C. until assayed. PTH levels were quantified according to the vendor's instructions using rat PTH (1-34) immunoradiometric assay kit (Immutopics, San Clemente, Calif.). Calcium and phosphorous were measured using a blood chemistry analyzer (AU 400; Olympus, Melville, N.Y.).

[2] = tested on: adenine-induced CKD/SHPT rats; assay: Aortic vascular calcification (bone mineral density of isolated aortas, Dxa scanner) in adenine model of CKD/SHPT
Description: as §1
Vascular calcification was assessed by quantifying the bone mineral density from fixed (formalin, PBS), isolated aortas using a Dxa scanner (Piximus densitomer, GE Healthcare).

[3] = tested on: adenine-induced CKD/SHPT rats; assay: Parathyroid gland size in adenine model of CKD/SHPT; settings: FIG. 3A, p=0.009 vs A5S vehicle (n=13 vs n=8)

C=C1/C(=C\C=C2/CCC[C@]3(C)[C@@H]([C@H](C)CCCC(C)(C)O)CC[C@@H]23)C[C@@H](O)C[C@@H]1O [calcitriol, 1α, 25-dihydroxycholecalciferol, reference compound]
aortic calcification severity (Von Kossa calcification score) (5/6 nx uremic rats): marked to severe
incidence of severe calcification (5/6 nx uremic rats; 5/6Nx uremic rats, treatment week 4, n=8 evaluated): 50%

Fc-IL-1ra: molecule having the sequence shown in FIG. 4 (SEQ ID NO: 1); fusion protein comprising IL-1ra; IL-1 receptor antagonist
BUN [1]: did not affect
creatinine levels [1]: did not affect
serum PTH levels ([1]; FIG. 3B, p=0.028 vs A5S vehicle (n=7 vs n=4)): decreased
aortic calcification severity (Von Kossa calcification score) (5/6 nx uremic rats): did not cause vascular calcification
calcitriol (Vitamin D3)-induced aortic vascular calcification (5/6 nx uremic rats; 5/6Nx rats, Fc-IL-1ra 100 mg/kg/day s.c. + calcitriol 30 ng, week 4, FIG. 6): attenuated
bone mineral density (aortic calcification) ([2]; adenine diet 0.75%, male Sprague-Dawley rats, Fc-IL-1ra n=7 vs A5S vehicle n=4, p=0.005 unpaired t-test): 0 g/cm2
development of aortic vascular calcification (bone mineral density content of the aorta) ([2]; adenine model, FIG. 2): prevented
animals with no calcification ([2]; adenine model, Fc-IL-1ra-treated animals): seven of seven
size of the parathyroid gland [3]: reduced
